Experimental findings from US20100273780A1, “SUBSTITUTED 8-HETEROARYL XANTHINES” (PGXHEALTH, LLC, priority 2003, published 2010) are described below.

In the experiment the target is T1, rat A2B receptors (rA2B) (Rattus norvegicus, UniProt P29276).
T1 construct: expressed in transfected cells; host or cells: HEK-293 cells, stably transfected (G418 selection); membranes
T1 sequence (P29276 1-332): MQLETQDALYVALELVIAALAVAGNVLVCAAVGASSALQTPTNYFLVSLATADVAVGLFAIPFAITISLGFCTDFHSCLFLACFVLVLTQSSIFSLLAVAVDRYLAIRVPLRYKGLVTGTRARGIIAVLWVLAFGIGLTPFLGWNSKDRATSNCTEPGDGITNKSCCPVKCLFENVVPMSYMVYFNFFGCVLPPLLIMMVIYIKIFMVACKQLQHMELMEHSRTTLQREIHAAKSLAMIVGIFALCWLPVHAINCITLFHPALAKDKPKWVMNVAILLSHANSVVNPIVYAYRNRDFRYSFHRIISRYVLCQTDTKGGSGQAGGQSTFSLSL
Nature of the experiment: Radioligand competition binding (125I-ABOPX) at rat A2B receptors in HEK-293 membranes. The note with it: displacement of specific [125I]ABOPX binding at rat A2B receptors expressed in HEK-293 cells; read-out: RatA2B Ki. Here is the method: The plasmid was amplified in competent JM109 cells and plasmid DNA isolated using Wizard Megaprep columns (Promega Corporation, Madison, Wis.).
Transfected HEK cells were grown under 5% CO2/[…] humidified atmosphere at a temperature of 37° C. Colonies were selected by growth of cells in 0.6 mg/mL G418. Transfected cells were maintained in DMEM supplemented with Hams F12 nutrient mixture (1/1), 10% newborn calf serum, 2 mM glutamine and containing 50 IU/mL penicillin, […], and 0.2 mg/mL Geneticin (G418, Boehringer Mannheim). Cells were cultured in 10 cm diameter round plates and subcultured when grown confluent (approximately after 72 hours).
At A2B receptors: Confluent monolayers of HEK-A2B cells were washed with PBS followed by ice cold Buffer A (10 mM HEPES, 10 mM EDTA, pH 7.4) with protease inhibitors (10 μg/mL benzamidine, 100 μM phenylmethanesulfonyl fluoride, and 2 μg/mL of each aprotinin, pepstatin and leupeptin). The cells were homogenized in a Polytron (Brinkmann) for 20 s, centrifuged at 30,000×g, and the pellets washed twice with buffer HE (10 mM HEPES, 1 mM EDTA, pH 7.4 with protease inhibitors). The final pellet was resuspended in buffer HE, supplemented with 10% sucrose and frozen in aliquots at −80° C. For binding assays membranes were thawed and diluted 5-10 fold with HE to a final protein concentration of approximately 1 mg/mL. To determine protein concentrations, membranes, and bovine serum albumin standards were dissolved in 0.2% NaOH/0.01% SDS and protein determined using fluorescamine fluorescence. Stowell, C.
After incubation, 20 minutes at room temperature, 50 μL, of 10 mg/mL Na-metabisulfite in water was added to quench the reaction. The reaction mixture was applied to a C18 HPLC column, eluting with a mixture of methanol and 5 mM phosphate, pH 6.0. After 5 min at 35% methanol, the methanol concentration was ramped to 100% over 15 min.
Radioligand binding experiments were performed in triplicate with 20-25 μg membrane protein in a total volume of 0.1 mL HE buffer supplemented with 1 U/mL adenosine deaminase and 5 mM MgCl2. The incubation time was 3 h at 21° C. Nonspecific binding was measured in the presence of 100 μM NECA. […] Membranes were filtered on Whatman GF/C filters using a Brandel cell harvester (Gaithersburg, Md.) and washed 3 times over 15-20 seconds with ice cold buffer (10 mM Tris, 1 mM MgCl2, pH 7.4). Bmax and KD values were calculated by Marquardt's nonlinear least squares interpolation for single a site binding models. Marquardt, D. M., J. Soc. Indust. Appl. […] Ki values for different compounds were derived from IC50 values as described. Linden, J., J. Cycl. Nucl. […] Data from replicate experiments are tabulated as means±SEM.
In the case of “1,3-Dipropyl-8-[6-[N-(isoxazole-5-carbonyl)methylamino]-3-pyridyl)xanthine [Compound 110]”, the Ki is < 500 nM.

As to `CCCn1c(=O)c2[nH]c(-c3ccc(N(C)C(=O)c4ccc(C(F)(F)F)nc4)nc3)nc2n(CCC)c1=O` [Compound 121, 1,3-dipropyll-8-[6-(N-[6-(trifluoromethyl)nicotinoyl]methylamino)-3-pyridyl]xanthine], the Ki is < 100 nM.

Take `CCn1c(=O)c2[nH]c(-c3ccc(N(CCOC)C(=O)Nc4ccncc4)nc3)nc2n(CC)c1=O` [Compound 95]: the Ki is < 500 nM.

`CCn1c(=O)c2[nH]c(-c3ccc(N(CC4CC4)C(=O)c4cccnc4)nc3)nc2n(CC)c1=O` [Compound 144, 1,3-Diethyl-8-[6-[N-nicotinoylcyclopropylmethylamino]-3-pyridyl)xanthine]: the Ki was < 500 nM.

In the case of `CCCn1c(=O)c2[nH]c(-c3ccc(N4CCCN(C)CC4)nc3)nc2n(CCC)c1=O` [Compound 9, 1,3-Dipropyl-8-{6-[4-methyl(perhydro-1,4-diazaepin-1-yl)]-3pyridyl}xanthine], the Ki is < 100 nM.

Regarding `CCCn1c(=O)c2[nH]c(-c3ccc(NCC)nc3)nc2n(CCC)c1=O` [Compound 3, 1,3-Dipropyl-8-(6-ethylamino-3-pyridyl)xanthine], the Ki is < 500 nM.

On to `CCCn1c(=O)c2[nH]c(-c3ccc(N4CCCNCC4)nc3)nc2n(CCC)c1=O` [Compound 58, 1,3-Dipropyl-8-[6-(hexahydro-1,4-diazaepin-1-yl)-3-pyridyl]xanthine], for which the Ki was < 100 nM.

For the compound `CCCn1c(=O)c2[nH]c(-c3ccc(NCc4ccc(CN)cc4)nc3)nc2n(CCC)c1=O` [Compound 21, 1,3-Dipropyl-8-[6-(4-aminomethylbenzylamino)-3-pyridyl]xanthine], the Ki was < 500 nM.

For `C#CCn1c(=O)c2[nH]c(-c3ccc(N(CCOC)C(=O)c4cccnc4)nc3)nc2n(C)c1=O` [Compound 100, 1-Propargyl, 3-methyl-8-[6-[N-nicotinoyl, N-(2-methoxyethyl)amino]-3-pyridyl)xanthine], the Ki was < 5000 nM.

Take `CCCn1c(=O)c2[nH]c(-c3ccc(NCCO)nc3)nc2n(CCC)c1=O` [Compound 4, 1,3-Dipropyl-8-(6-(2-hydroxyethyl)amino-3-pyridyl)xanthine]: the Ki is < 500 nM.

As to “1-Cyclopropyl-3-propyl-8-[6-[N-nicotinoylmethylamino]-3-pyridyl)xanthine [Compound 129]”, the Ki was < 100 nM.

As for `CCCn1c(=O)c2[nH]c(-c3ccc(NCC(C)O)nc3)nc2n(CCC)c1=O` (stereo not drawn) [Compound 13, 1,3-Dipropyl-8-[6-(2-hydroxypropyl)amino-3-pyridyl]xanthine], the Ki was < 500 nM.

With “1,3-Diethyl-8-[6-[N-(isoxazole-5-carbonyl)methylamino]-3-pyridyl)xanthine [Compound 108]”, the Ki was < 500 nM.

Consider “1,3-Diethyl-8-[6-[N-nicotinoylethylamino]-3-pyridyl)xanthine [Compound 62]”, for which the Ki was < 500 nM.

Consider `CCCn1c(=O)c2[nH]c(-c3ccc(N(C)C(=O)c4cc(C)on4)nc3)nc2n(CCC)c1=O` [Compound 111, 1,3-Dipropyl-8-[6-[N-(5-methylisoxazol-3-yl-3-carbonyl)methylamino]-3-pyridyl)xanthine], for which the Ki was < 100 nM.

In the case of “1,3-Dipropyl-8-[6-[N-(2-pyrazinecarbonyl)methylamino]-3-pyridyl)xanthine [Compound 109]”, the Ki is < 500 nM.

Take “1-Cyclopropylmethyl-3-ethyl-8-[6-[N-(6-chloronicotinoyl)methylamino]-3-pyridyl)xanthine [Compound 145]”: the Ki is < 100 nM.

Regarding `CCCn1c(=O)c2[nH]c(-c3ccc(NC4CC4)nc3)nc2n(CCC)c1=O` [Compound 23, 1,3-Dipropyl-8-(6-cyclopropylamino-3-pyridyl]xanthine], the Ki is < 500 nM.

For the compound “1,3-Dipropyl-8-[6-[N-isonicotinoylmethylamino]-3-pyridyl)xanthine [Compound 49]”, the inhibitory constant (Ki) is < 100 nM.

For the compound `CCCn1c(=O)c2[nH]c(-c3ccc(NCCNC(C)=O)nc3)nc2n(CCC)c1=O` [Compound 83, 1,3-Dipropyl-8-(6-(2-acetylaminoethyl)amino-3-pyridyl)xanthine], the Ki was < 500 nM.

Turning to `CCCn1c(=O)c2[nH]c(-c3ccc(NC)nc3)nc2n(CCC)c1=O` [Compound 10, 1,3-Dipropyl-8-(6-methylamino-3-pyridyl)xanthine], the Ki was < 500 nM.

With “1,3-Diethyl-8-[6-(N-(6-chloronicotinoyl)methylamino)-3-pyridyl]xanthine [Compound 130]”, the Ki was < 100 nM.

`CCCn1c(=O)c2[nH]c(-c3ccc(N4CCOCC4)nc3)nc2n(CCC)c1=O` [Compound 16, 1,3-Dipropyl-8-(6-morpholino-3-pyridyl)xanthine]: the inhibition constant (Ki) was < 100 nM.

In the case of `CCCn1c(=O)c2[nH]c(-c3ccc(N4CCCC4)nc3)nc2n(CCC)c1=O` [Compound 8, 1,3-Dipropyl-8-(6-pyrrolidinylpyrid-3-yl)xanthine], the Ki is < 500 nM.
